Laboratory results from patent US20020090380A1, “Novel formulation comprising thymol useful in the treatment of drug resistant bacterial infections” (priority 2000, published 2002).
Where two headings read alike, the source gives them in different places.

How the values were obtained:
Type in all cases: cell-based
[1] = system: lomefloxacin resistant mutants of Mycobacterium smegmatis; test: microbe, parasite or virus in culture; settings: Mycolicibacterium smegmatis; for zone of inhibition at 100 µg/disc: 100 μg/disc
[2] = system: E. coli strain DH5α (gyr mutation); test: microbe, parasite or virus in culture; settings: Escherichia coli
[3] = system: E. coli strain ET8000 (gyr mutation); test: microbe, parasite or virus in culture; settings: Escherichia coli
[4] = system: E. coli cells; test: microbe, parasite or virus in culture; settings: Escherichia coli
[5] = system: nalidixic acid resistant mutants of Escherichia coli; test: microbe, parasite or virus in culture; settings: for inhibition zones / zone of inhibition at 50 µg/disc: 50 μg/disc; for zone of inhibition at 100 µg/disc / zone of inhibition at 250 µg/disc / zone of inhibition at 50 µg/disc: Escherichia coli; for zone of inhibition at 100 µg/disc: 100 μg/disc; for zone of inhibition at 250 µg/disc: 250 μg/disc
[6] = system: E. coli CAO3 (revert); test: microbe, parasite or virus in culture; settings: Escherichia coli, read-out: inhibition zones
[7] = system: Mycobacterium smegmatis wild type strain MC^2; test: microbe, parasite or virus in culture; settings: Mycolicibacterium smegmatis
[8] = system: E. coli CAO3; test: microbe, parasite or virus in culture; settings: Escherichia coli, CAO3, read-out: inhibition zones
[9] = system: E. coli strain CA8000 (wild type); test: microbe, parasite or virus in culture; settings: Escherichia coli
[10] = system: multidrug resistant bacteria
[11] = system: Ethidium bromide resistant strain of Mycobacterium smegmetis; test: microbe, parasite or virus in culture; settings: read-out: Activity of thymol (zone)
[12] = system: lomefloxacin resistant mutants of Escherichia coli; test: microbe, parasite or virus in culture
[13] = system: E. coli cells; test: Disk diffusion assay, synergistic effect of thymol with Mentha hybrid oil; settings: Escherichia coli; thymol 50 μg/disc
[14] = system: Escherchia coli strain CA8000; test: organism not typed; settings: for zone of inhibition at 50 µg/disc: 50 μg/disc; for zone of inhibition at 100 µg/disc: 100 μg/disc
Text: Activity of the Compound of the Present Invention Thymol at Different pH in Escherchia coli Strain CA8000
The above table clearly indicate that the activity of the present compound is maximum at neutral pH (7.00).

[15] = read-out: inhibition zones, CAN 102
[16] = read-out: inhibition zones, CAN 104
[17] = read-out: inhibition zones, CAN 105
[18] = read-out: inhibition zones, CAN 106
[19] = read-out: inhibition zones, CAN 107
[20] = read-out: inhibition zones, CAN 108
[21] = read-out: inhibition zones, CAN 109
[22] = read-out: inhibition zones, CAN 110
[23] = read-out: inhibition zones, CAN 111
[24] = read-out: inhibition zones, CAN 112
[25] = read-out: inhibition zones, CAN 113
[26] = read-out: inhibition zones, CAN 114
[27] = read-out: inhibition zones, CAN 115
[28] = read-out: inhibition zones, CAN 116
[29] = read-out: inhibition zones, CAN 117
[30] = read-out: inhibition zones, CAN 118
[31] = read-out: inhibition zones, CAN 119
[32] = read-out: inhibition zones, CAN 120
[33] = read-out: inhibition zones, CAN 121
[34] = read-out: inhibition zones, CAN 122
[35] = read-out: inhibition zones, CAN 123
[36] = read-out: inhibition zones, CAN 124
[37] = read-out: inhibition zones, CAN 125
[38] = read-out: inhibition zones, CAN 126

## Cc1ccc(C(C)C)c(O)c1 [Thymol]
[1]; read-out: inhibition zones, MSL 101
  zone of inhibition at 100 µg/disc: 1 mm
[1]; read-out: inhibition zones, MSL 102
  zone of inhibition at 100 µg/disc: 1 mm
[1]; read-out: inhibition zones, MSL 103
  zone of inhibition at 100 µg/disc: 1 mm
[1]; read-out: inhibition zones, MSL 104
  zone of inhibition at 100 µg/disc: 1 mm
[1]; read-out: inhibition zones, MSL 105
  zone of inhibition at 100 µg/disc: 1 mm
[1]; read-out: inhibition zones, MSL 106
  zone of inhibition at 100 µg/disc: < 0.5 mm
[1]; read-out: inhibition zones, MSL 107
  zone of inhibition at 100 µg/disc: 1 mm
[1]; read-out: inhibition zones, MSL 108
  zone of inhibition at 100 µg/disc: 1 mm
[1]; read-out: inhibition zones, MSL 109
  zone of inhibition at 100 µg/disc: 1 mm
[1]; read-out: inhibition zones, MSL 109, 150 mg/ml
  zone of inhibition at 150000 µg/mL: 2.5 mm
[1]; read-out: inhibition zones, MSL 110
  zone of inhibition at 100 µg/disc: 1 mm
[1]; read-out: inhibition zones, MSL 111
  zone of inhibition at 100 µg/disc: 1 mm
[1]; read-out: inhibition zones, MSL 112
  zone of inhibition at 100 µg/disc: 1 mm
[2]
  zone of inhibition at 50000 µg/mL: 5.5 mm
[3]
  zone of inhibition at 20000 µg/mL: 3 mm
  zone of inhibition at 50000 µg/mL: 6 mm
[4]; thymol 12.5 μg/disc
  zone of inhibition at 12.5 µg/disc: < 0.5 mm
[4]; thymol 25.0 μg/disc
  zone of inhibition at 25 µg/disc: 2 mm
[4]; thymol 50.0 μg/disc
  zone of inhibition at 50 µg/disc: 3 mm
[4]; thymol 75.0 μg/disc
  zone of inhibition at 75 µg/disc: 5 mm
[4]; thymol 100.0 μg/disc
  zone of inhibition at 100 µg/disc: 6 mm
[5]; CAN 101
  inhibition zones: Tr.
[5]; CAN 102
  inhibition zones: Tr.
[5]; CAN 103
  inhibition zones: Tr.
[5]; CAN 104
  inhibition zones: Tr.
[5]; CAN 105
  inhibition zones: Tr.
[5]; CAN 108
  inhibition zones: Tr.
[5]; CAN 113
  inhibition zones: Tr.
[5]; CAN 122
  inhibition zones: Tr.
[5]; read-out: inhibition zones, CAN 101
  zone of inhibition at 100 µg/disc: 1.5 mm
[5]; [15]
  zone of inhibition at 100 µg/disc: 2 mm
  zone of inhibition at 250 µg/disc: 7 mm
[5]; read-out: inhibition zones, CAN 103
  zone of inhibition at 100 µg/disc: 2 mm
[5]; [16]
  zone of inhibition at 100 µg/disc: 2 mm
  zone of inhibition at 250 µg/disc: 6 mm
[5]; [17]
  zone of inhibition at 100 µg/disc: 2 mm
  zone of inhibition at 250 µg/disc: 5 mm
[5]; [18]
  zone of inhibition at 50 µg/disc: 1 mm
  zone of inhibition at 100 µg/disc: 2 mm
[5]; [19]
  zone of inhibition at 50 µg/disc: 1 mm
  zone of inhibition at 100 µg/disc: 3 mm
  zone of inhibition at 250 µg/disc: 5 mm
[5]; [20]
  zone of inhibition at 100 µg/disc: 2 mm
  zone of inhibition at 250 µg/disc: 5 mm
[5]; [21]
  zone of inhibition at 50 µg/disc: 1 mm
  zone of inhibition at 100 µg/disc: 3 mm
  zone of inhibition at 250 µg/disc: 6 mm
[5]; [22]
  zone of inhibition at 50 µg/disc: 1 mm
  zone of inhibition at 100 µg/disc: 3 mm
  zone of inhibition at 250 µg/disc: 6 mm
[5]; [23]
  zone of inhibition at 50 µg/disc: 1 mm
  zone of inhibition at 100 µg/disc: 3 mm
  zone of inhibition at 250 µg/disc: 5 mm
[5]; [24]
  zone of inhibition at 50 µg/disc: 1 mm
  zone of inhibition at 100 µg/disc: 3 mm
  zone of inhibition at 250 µg/disc: 5 mm
[5]; [25]
  zone of inhibition at 100 µg/disc: 2 mm
  zone of inhibition at 250 µg/disc: 5 mm
[5]; [26]
  zone of inhibition at 50 µg/disc: 1 mm
  zone of inhibition at 100 µg/disc: 3 mm
  zone of inhibition at 250 µg/disc: 6 mm
[5]; [27]
  zone of inhibition at 50 µg/disc: 1 mm
  zone of inhibition at 100 µg/disc: 3 mm
  zone of inhibition at 250 µg/disc: 5 mm
[5]; [28]
  zone of inhibition at 50 µg/disc: 1 mm
  zone of inhibition at 100 µg/disc: 3 mm
  zone of inhibition at 250 µg/disc: 5 mm
[5]; [29]
  zone of inhibition at 50 µg/disc: 1 mm
  zone of inhibition at 100 µg/disc: 3 mm
  zone of inhibition at 250 µg/disc: 5 mm
[5]; [30]
  zone of inhibition at 50 µg/disc: 1 mm
  zone of inhibition at 100 µg/disc: 3 mm
  zone of inhibition at 250 µg/disc: 5 mm
[5]; [31]
  zone of inhibition at 50 µg/disc: 1 mm
  zone of inhibition at 100 µg/disc: 3 mm
  zone of inhibition at 250 µg/disc: 6 mm
[5]; [32]
  zone of inhibition at 50 µg/disc: 1 mm
  zone of inhibition at 100 µg/disc: 3 mm
  zone of inhibition at 250 µg/disc: 6 mm
[5]; [33]
  zone of inhibition at 50 µg/disc: 1 mm
  zone of inhibition at 100 µg/disc: 3 mm
  zone of inhibition at 250 µg/disc: 5 mm
[5]; [34]
  zone of inhibition at 100 µg/disc: 2 mm
  zone of inhibition at 250 µg/disc: 5 mm
[5]; [35]
  zone of inhibition at 50 µg/disc: 1 mm
  zone of inhibition at 100 µg/disc: 3 mm
  zone of inhibition at 250 µg/disc: 5 mm
[5]; [36]
  zone of inhibition at 50 µg/disc: 1 mm
  zone of inhibition at 100 µg/disc: 3 mm
  zone of inhibition at 250 µg/disc: 5 mm
[5]; [37]
  zone of inhibition at 50 µg/disc: 1 mm
  zone of inhibition at 100 µg/disc: 3 mm
  zone of inhibition at 250 µg/disc: 5 mm
[5]; [38]
  zone of inhibition at 50 µg/disc: 1 mm
  zone of inhibition at 100 µg/disc: 2 mm
  zone of inhibition at 250 µg/disc: 5 mm
[6]
  zone of inhibition at 100 µg/disc: 8 mm
[7]; read-out: Activity of thymol (zone)
  zone of inhibition at 100 µg/disc: 8 mm
[7]; read-out: inhibition zones
  zone of inhibition at 50 µg/disc: 1 mm
  zone of inhibition at 100 µg/disc: 2 mm
  zone of inhibition at 250 µg/disc: 4 mm
  zone of inhibition at 150000 µg/mL: 3 mm
[8]
  zone of inhibition at 100 µg/disc: 2 mm
[9]
  zone of inhibition at 10000 µg/mL: 1 mm
  zone of inhibition at 20000 µg/mL: 2 mm
  zone of inhibition at 50000 µg/mL: 5 mm
[9]; read-out: inhibition zones
  zone of inhibition at 250 µg/disc: 4 mm
[10]
  increase of the antibacterial activity of thymol: 45%
[11]
  zone of inhibition at 100 µg/disc: 11 mm
[12]; read-out: inhibition zones, CAL 101, 50 μg/disc
  zone of inhibition at 50 µg/disc: 2 mm
[12]; read-out: inhibition zones, CAL 101, 100 μg/disc
  zone of inhibition at 100 µg/disc: 4 mm
[12]; read-out: inhibition zones, CAL 102, 100 μg/disc
  zone of inhibition at 100 µg/disc: 5 mm
[12]; read-out: inhibition zones, CAL 103, 50 μg/disc
  zone of inhibition at 50 µg/disc: 2 mm
[12]; read-out: inhibition zones, CAL 103, 100 μg/disc
  zone of inhibition at 100 µg/disc: 3 mm
[12]; read-out: inhibition zones, CAL 104, 50 μg/disc
  zone of inhibition at 50 µg/disc: 1 mm
[12]; read-out: inhibition zones, CAL 104, 100 μg/disc
  zone of inhibition at 100 µg/disc: 1.5 mm
[12]; read-out: inhibition zones, CAL 105, 50 μg/disc
  zone of inhibition at 50 µg/disc: 2 mm
[12]; read-out: inhibition zones, CAL 105, 100 μg/disc
  zone of inhibition at 100 µg/disc: 4 mm
[12]; read-out: inhibition zones, CAL 106, 50 μg/disc
  zone of inhibition at 50 µg/disc: 2 mm
[12]; read-out: inhibition zones, CAL 106, 100 μg/disc
  zone of inhibition at 100 µg/disc: 4 mm
[12]; read-out: inhibition zones, CAL 107, 50 μg/disc
  zone of inhibition at 50 µg/disc: 2 mm
[12]; read-out: inhibition zones, CAL 107, 100 μg/disc
  zone of inhibition at 100 µg/disc: 4 mm
[12]; read-out: inhibition zones, CAL 108, 100 μg/disc
  zone of inhibition at 100 µg/disc: 5 mm
[13]
  zone of inhibition at 50 µg/disc: 3 mm
[14]; 25 μg/disc, pH 4.00
  inhibition zone: trace
[14]; 25 μg/disc, pH 7.00
  zone of inhibition at 25 µg/disc: 1 mm
[14]; 1M NaOH
  zone of inhibition at 50 µg/disc: 1 mm
  zone of inhibition at 100 µg/disc: 2 mm
[14]; pH 4.00
  zone of inhibition at 50 µg/disc: 2 mm
  zone of inhibition at 100 µg/disc: 4 mm
[14]; pH 7.00
  zone of inhibition at 50 µg/disc: 2 mm
  zone of inhibition at 100 µg/disc: 6 mm
[14]; pH 9.00
  zone of inhibition at 50 µg/disc: 1 mm
  zone of inhibition at 100 µg/disc: 3 mm
